For one series, the target named is TYK2 (Homo sapiens (Human), UniProt P29597). As to the kind of experiment: Biochemical JAK kinase assay (LanthaScreen), Tyk2. The conditions noted are these: read-out: Tyk2 pKi (converted). In short, it runs like this: (§1)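 LanthaScreen format: phospho-STAT1 (pTyr701) detected with 2 nM Tb antibody after 10 mM EDTA quench. Kinase step used Km-level ATP and 200 nM STAT1 peptide, 1 h at ambient after 1 h pre-incubation. Inhibition fitted to IC50, reported as pKi.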
TYK2, sequence (P29597 whole entry): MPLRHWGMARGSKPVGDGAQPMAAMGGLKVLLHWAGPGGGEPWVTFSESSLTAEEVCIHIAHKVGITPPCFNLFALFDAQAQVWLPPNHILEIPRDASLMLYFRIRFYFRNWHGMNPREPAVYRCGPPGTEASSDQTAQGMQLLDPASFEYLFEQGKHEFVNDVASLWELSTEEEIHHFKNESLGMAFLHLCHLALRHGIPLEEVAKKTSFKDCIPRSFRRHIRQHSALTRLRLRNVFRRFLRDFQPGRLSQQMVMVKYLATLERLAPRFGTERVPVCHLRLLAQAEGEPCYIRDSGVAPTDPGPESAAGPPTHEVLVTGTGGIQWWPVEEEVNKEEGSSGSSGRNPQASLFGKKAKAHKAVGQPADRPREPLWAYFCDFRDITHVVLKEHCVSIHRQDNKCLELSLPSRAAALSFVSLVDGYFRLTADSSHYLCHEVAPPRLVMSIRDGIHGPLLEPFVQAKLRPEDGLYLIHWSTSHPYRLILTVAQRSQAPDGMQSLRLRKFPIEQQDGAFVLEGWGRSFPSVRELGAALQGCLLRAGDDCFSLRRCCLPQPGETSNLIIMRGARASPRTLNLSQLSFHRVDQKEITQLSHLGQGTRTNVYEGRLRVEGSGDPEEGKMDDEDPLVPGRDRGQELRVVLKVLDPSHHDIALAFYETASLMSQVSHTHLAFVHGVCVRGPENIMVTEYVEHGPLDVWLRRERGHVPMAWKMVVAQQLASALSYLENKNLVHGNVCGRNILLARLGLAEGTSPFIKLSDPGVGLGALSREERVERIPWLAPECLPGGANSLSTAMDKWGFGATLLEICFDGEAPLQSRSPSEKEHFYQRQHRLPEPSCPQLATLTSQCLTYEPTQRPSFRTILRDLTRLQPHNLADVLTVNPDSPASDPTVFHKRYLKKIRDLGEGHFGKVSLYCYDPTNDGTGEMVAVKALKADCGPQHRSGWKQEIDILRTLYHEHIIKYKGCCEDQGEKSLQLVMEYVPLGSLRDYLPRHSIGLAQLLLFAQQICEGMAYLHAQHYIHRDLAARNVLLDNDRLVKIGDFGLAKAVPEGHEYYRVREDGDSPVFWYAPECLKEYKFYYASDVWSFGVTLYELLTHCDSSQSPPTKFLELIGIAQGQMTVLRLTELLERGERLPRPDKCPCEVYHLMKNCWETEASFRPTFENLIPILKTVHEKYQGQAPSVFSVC

The subject of series [1] is IL-13 induced STAT6 phosphorylation in BEAS-2B human lung epithelial cells. The series can be described thus: Cellular JAKI potency assay (BEAS-2B). Type of series: cell-based. The following applies: Homo sapiens, BEAS-2B, BEAS-2B cells, read-out: BEAS2B pIC50 (converted). In short, it runs like this: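 AlphaLISA SureFire detection of Tyr641 pSTAT6 in lysates gave IC50s (4-parameter fit, expressed as pIC50). Cells: human BEAS-2B, exposed 1 h at 37 °C to compound dose series at 0.1% DMSO, then 30 min to IL-13 added at 80 ng/mL in HEPES-buffered HBSS with BSA.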

A further series deals with JAK2 (Homo sapiens (Human), UniProt O60674). The series can be described thus: Biochemical JAK kinase assay (LanthaScreen), JAK2. The conditions noted are these: for Ki: read-out: JAK2 pKi (converted). In short, it runs like this:
as §1
For orientation: In TR-FRET formats the signal depends on donor and acceptor labels being close together.

A further series deals with JAK1 (Homo sapiens (Human), UniProt P23458). The series can be described thus: Biochemical JAK kinase assay (LanthaScreen), JAK1. The conditions noted are these: for Ki: read-out: JAK1 pKi (converted). In outline:
as §1

Series [2] is described as follows: Pharmacokinetics in plasma and lung in mouse after oral aspiration administration. Type of series: in vivo. The following applies: male CD1 mice; for Lung Tissue AUC(0-24) / AUC(0-t): 0.2 mg/mL, two 25 μL increments; for Lung Tissue:Plasma AUC ratio: lung AUC to plasma AUC; for AUC(0-t): mouse, inhaled or intranasal, 0.01 mg/mouse, plasma, read-out: Plasma AUC(0-24). In short, it runs like this:
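Male CD1 mice given 0.2 mg/mL compound in 20% propylene glycol/pH 4 citrate buffer, two 25 μL increments by oral aspiration into the trachea under isoflurane. Plasma and lung homogenate sampled 0.167–24 hr and measured by LC-MS/MS. Non-compartmental analysis gave AUC(0-inf); lung-to-plasma ratio from lung (μg*hr/g) over plasma (μg*hr/mL) AUC.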

Another series has as its target JAK3 (Homo sapiens (Human), UniProt P52333). The series can be described thus: Biochemical JAK kinase assay (LanthaScreen), JAK3. The conditions noted are these: read-out: JAK3 pKi (converted). In outline: as §1

The structures appear in SMILES notation.

JAK2, sequence (O60674 whole entry): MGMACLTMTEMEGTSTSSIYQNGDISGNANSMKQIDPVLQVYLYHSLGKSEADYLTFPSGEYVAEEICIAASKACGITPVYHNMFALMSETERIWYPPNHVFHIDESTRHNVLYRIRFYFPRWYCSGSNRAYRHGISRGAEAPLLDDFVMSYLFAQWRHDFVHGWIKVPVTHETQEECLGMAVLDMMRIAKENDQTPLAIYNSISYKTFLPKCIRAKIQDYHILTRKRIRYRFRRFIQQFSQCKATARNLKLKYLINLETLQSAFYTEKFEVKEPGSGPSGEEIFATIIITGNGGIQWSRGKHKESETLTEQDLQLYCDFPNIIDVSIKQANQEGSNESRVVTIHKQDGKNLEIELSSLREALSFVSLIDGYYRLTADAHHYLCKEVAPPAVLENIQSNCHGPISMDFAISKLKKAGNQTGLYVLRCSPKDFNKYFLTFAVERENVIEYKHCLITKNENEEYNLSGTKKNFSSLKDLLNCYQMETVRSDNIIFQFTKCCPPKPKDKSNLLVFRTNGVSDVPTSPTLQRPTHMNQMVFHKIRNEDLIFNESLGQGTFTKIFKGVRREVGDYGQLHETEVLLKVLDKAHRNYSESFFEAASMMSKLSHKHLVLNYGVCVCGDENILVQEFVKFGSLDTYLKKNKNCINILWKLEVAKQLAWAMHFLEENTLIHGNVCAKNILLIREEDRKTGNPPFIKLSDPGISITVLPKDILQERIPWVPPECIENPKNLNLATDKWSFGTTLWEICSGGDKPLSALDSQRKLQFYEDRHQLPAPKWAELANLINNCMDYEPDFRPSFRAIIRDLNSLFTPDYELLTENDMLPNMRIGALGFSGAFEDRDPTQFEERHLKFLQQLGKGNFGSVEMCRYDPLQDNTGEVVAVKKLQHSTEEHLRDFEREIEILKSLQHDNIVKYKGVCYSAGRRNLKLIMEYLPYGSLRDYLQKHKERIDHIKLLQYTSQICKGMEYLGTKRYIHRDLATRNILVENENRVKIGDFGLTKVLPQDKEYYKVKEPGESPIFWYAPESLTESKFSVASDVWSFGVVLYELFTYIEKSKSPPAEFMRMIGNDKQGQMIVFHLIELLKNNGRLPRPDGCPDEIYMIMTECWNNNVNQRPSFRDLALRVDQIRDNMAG
JAK1, sequence (P23458 whole entry): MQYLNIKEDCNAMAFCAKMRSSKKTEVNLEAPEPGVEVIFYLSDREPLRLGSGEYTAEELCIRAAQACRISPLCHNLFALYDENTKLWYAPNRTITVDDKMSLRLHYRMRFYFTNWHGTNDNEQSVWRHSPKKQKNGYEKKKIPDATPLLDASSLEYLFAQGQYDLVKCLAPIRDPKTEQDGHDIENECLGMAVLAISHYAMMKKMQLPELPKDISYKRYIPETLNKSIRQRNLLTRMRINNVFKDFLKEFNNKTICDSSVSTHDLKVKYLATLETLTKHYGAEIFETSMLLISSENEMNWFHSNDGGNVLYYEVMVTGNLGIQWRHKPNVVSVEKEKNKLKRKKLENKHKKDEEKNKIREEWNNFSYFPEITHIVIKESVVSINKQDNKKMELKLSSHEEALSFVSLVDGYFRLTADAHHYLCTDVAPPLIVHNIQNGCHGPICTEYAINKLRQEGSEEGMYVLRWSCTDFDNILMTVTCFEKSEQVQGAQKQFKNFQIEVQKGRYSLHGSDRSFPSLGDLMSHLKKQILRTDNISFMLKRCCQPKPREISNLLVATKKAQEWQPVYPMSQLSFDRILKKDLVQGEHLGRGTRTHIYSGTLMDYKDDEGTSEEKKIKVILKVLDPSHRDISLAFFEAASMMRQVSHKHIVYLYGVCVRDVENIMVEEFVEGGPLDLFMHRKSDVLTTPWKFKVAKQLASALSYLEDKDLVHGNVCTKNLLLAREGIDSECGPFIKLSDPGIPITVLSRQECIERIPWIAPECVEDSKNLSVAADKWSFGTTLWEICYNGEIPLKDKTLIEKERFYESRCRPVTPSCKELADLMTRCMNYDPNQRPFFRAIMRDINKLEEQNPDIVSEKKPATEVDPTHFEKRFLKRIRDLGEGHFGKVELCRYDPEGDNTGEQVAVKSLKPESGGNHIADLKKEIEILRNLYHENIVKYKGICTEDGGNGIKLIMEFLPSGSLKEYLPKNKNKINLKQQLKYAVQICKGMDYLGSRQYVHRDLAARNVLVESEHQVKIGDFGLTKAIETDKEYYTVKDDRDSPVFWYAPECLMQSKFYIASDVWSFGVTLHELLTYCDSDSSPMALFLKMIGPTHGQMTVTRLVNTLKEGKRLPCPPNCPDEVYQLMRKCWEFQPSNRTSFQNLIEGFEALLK
JAK3, sequence (P52333 whole entry): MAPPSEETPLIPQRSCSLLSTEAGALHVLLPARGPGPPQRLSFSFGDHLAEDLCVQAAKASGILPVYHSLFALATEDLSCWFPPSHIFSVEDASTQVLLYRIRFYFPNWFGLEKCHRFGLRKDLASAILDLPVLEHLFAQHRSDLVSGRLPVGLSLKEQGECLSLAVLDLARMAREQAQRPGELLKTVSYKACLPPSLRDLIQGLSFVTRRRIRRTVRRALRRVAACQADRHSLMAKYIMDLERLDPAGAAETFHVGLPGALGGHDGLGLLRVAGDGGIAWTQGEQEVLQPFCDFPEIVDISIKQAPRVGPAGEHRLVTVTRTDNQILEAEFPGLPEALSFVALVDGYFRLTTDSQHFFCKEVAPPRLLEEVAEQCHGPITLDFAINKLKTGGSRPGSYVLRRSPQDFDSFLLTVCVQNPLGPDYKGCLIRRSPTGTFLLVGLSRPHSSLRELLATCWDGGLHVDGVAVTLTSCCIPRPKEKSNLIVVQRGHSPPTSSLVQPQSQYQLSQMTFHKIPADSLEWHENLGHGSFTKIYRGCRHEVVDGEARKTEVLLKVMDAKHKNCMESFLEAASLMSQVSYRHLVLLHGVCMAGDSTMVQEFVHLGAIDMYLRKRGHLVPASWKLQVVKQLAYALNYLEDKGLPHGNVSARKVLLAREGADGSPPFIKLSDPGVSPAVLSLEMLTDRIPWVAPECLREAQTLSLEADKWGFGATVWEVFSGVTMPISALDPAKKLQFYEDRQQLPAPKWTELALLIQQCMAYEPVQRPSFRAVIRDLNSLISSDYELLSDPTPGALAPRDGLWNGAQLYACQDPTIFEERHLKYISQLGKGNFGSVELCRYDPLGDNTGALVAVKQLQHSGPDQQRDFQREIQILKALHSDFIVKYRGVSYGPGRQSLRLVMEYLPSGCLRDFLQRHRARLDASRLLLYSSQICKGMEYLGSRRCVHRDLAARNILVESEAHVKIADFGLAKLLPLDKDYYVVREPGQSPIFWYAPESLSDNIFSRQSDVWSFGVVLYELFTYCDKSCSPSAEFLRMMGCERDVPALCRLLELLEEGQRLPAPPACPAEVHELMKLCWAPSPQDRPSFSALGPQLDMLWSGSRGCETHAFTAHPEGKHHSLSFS

`CCc1cc(O)ccc1-c1ccc2c(-c3nc(C4=CCCN(C5CCN(C)CC5)C4)c[nH]3)n[nH]c2c1` [Example 192]: at TYK2, the Ki is 1 to 10 nM. Also, the IC50 in series [1] was 10 to 31.6 nM. Besides, the “JAK2 pKi” value at JAK2 is listed as “A (A represents a pKi value ≥10 (Ki≤0.1 nM))”. Moreover, the Ki at JAK1 was 0.1 to 1 nM. In series [2], the “Lung Tissue AUC(0-24)” value is “A (For the Lung Tissue AUC(0-24), A denotes a value between 100 and 200)”; the “Lung Tissue:Plasma AUC ratio” value is “A (For the ratio of lung exposure to plasma exposure, A denotes a ratio 300-410)”; the AUC(0-t) is below 500 ng·h/mL. Also, on JAK3, the Ki was 0.1 to 1 nM.

As for `CCc1cc(O)ccc1-c1ccc2c(-c3nc(C4=CCN(C5CCN(C)CC5)C4)c[nH]3)n[nH]c2c1F` [Example 201], the Ki on TYK2 was 1 to 10 nM. In addition, in series [1], the IC50 was 3.16 to 10 nM. The “JAK2 pKi” value at JAK2 is “A (A represents a pKi value ≥10 (Ki≤0.1 nM))”. Moreover, on JAK1, the Ki is 0.1 to 1 nM. In addition, in series [2], the “Lung Tissue AUC(0-24)” value was “A (For the Lung Tissue AUC(0-24), A denotes a value between 100 and 200)”; the “Lung Tissue:Plasma AUC ratio” value is “B (B denotes a ratio between 200 and 300)”; the AUC(0-t) fell in the range of 500 to 1000 ng·h/mL. Also, the Ki on JAK3 was 0.1 to 1 nM.

Consider `CCc1cc(O)ccc1-c1ccc2c(-c3nc(C4=CCN(C5CN(C)C5)C4)c[nH]3)n[nH]c2c1F` [Example 202], for which, at TYK2, the Ki was 1 to 10 nM. The IC50 in series [1] is 10 to 31.6 nM. For the same compound, on JAK2, the “JAK2 pKi” value is on record as “A (A represents a pKi value ≥10 (Ki≤0.1 nM))”. Also, on JAK1, the Ki is 0.1 to 1 nM. In addition, in series [2], the “Lung Tissue AUC(0-24)” value is “B (B denotes a value between 50 and 100)”; the “Lung Tissue:Plasma AUC ratio” value was “D (D denotes a ratio between 50 and 100)”; the AUC(0-t) lay in the range of 500 to 1000 ng·h/mL. Besides, the Ki at JAK3 was 0.1 to 1 nM.

Regarding `CCc1cc(O)ccc1-c1ccc2c(-c3nc(C4=C(C)CNCC4)c[nH]3)n[nH]c2c1F` [Example 227], the Ki at TYK2 was 1 to 10 nM; on JAK2, 0.1 to 1 nM; at JAK1 it was 0.1 to 1 nM; on JAK3 it was 1 to 10 nM. Besides, in series [1], the IC50 was 10 to 31.6 nM. The “Lung Tissue AUC(0-24)” value in series [2] was “A (For the Lung Tissue AUC(0-24), A denotes a value between 100 and 200)”. For the same compound, the “Lung Tissue:Plasma AUC ratio” value in series [2] was “C (C denotes a ratio between 100 and 200)”. The AUC(0-t) in series [2] lay within 500 to 1000 ng·h/mL.

For `CCc1cc(O)ccc1-c1ccc2c(-c3nc(C4=CC[C@H](C)NC4)c[nH]3)n[nH]c2c1F` [Example 234], the Ki on TYK2 is 1 to 10 nM. The IC50 in series [1] was 3.16 to 10 nM. Moreover, the Ki on JAK2 was 0.1 to 1 nM. Besides, on JAK1, the “JAK1 pKi” value is given as “A (A represents a pKi value ≥10 (Ki≤0.1 nM))”. Also, in series [2], the “Lung Tissue AUC(0-24)” value is “B (B denotes a value between 50 and 100)”; the “Lung Tissue:Plasma AUC ratio” value was “C (C denotes a ratio between 100 and 200)”; the AUC(0-t) is below 500 ng·h/mL. In addition, the Ki on JAK3 is 1 to 10 nM.

For `CCc1cc(O)ccc1-c1ccc2c(-c3nc(C4=CC[C@@H](C)NC4)c[nH]3)n[nH]c2c1F` [Example 235], the Ki at TYK2 was 1 to 10 nM. Moreover, in series [1], the IC50 is 10 to 31.6 nM. Further, at JAK2, the “JAK2 pKi” value is given as “A (A represents a pKi value ≥10 (Ki≤0.1 nM))”. Further, on JAK1, the Ki was 0.1 to 1 nM. In series [2], the “Lung Tissue AUC(0-24)” value was “C (C denotes a value between 9 and 50)”; the “Lung Tissue:Plasma AUC ratio” value is “C (C denotes a ratio between 100 and 200)”; the AUC(0-t) is below 500 ng·h/mL. For the same compound, the Ki on JAK3 was 0.1 to 1 nM.

In the case of `CCc1cc(O)ccc1-c1ccc2c(-c3nc(C4=C[C@@H](COC)NC4)c[nH]3)n[nH]c2c1F` [Example 246], the Ki at TYK2 is 10 to 100 nM; at JAK2, 0.1 to 1 nM; at JAK1, 0.1 to 1 nM; at JAK3, 1 to 10 nM. Moreover, the IC50 in series [1] was 10 to 31.6 nM. Moreover, in series [2], the “Lung Tissue AUC(0-24)” value was “C (C denotes a value between 9 and 50)”. Further, the “Lung Tissue:Plasma AUC ratio” value in series [2] is “D (D denotes a ratio between 50 and 100)”. In addition, the AUC(0-t) in series [2] was below 500 ng·h/mL.

For the origin of these results see patent publication US20240092758A1, “IMIDAZOLO INDAZOLE COMPOUNDS AS JAK INHIBITORS” (Theravance Biopharma R&D IP, LLC, priority 2021, published 2024).
